Source: US7741275B2, “Agents and use thereof” (Lipopeptide AB, priority 2004, dated 2010)

Experiments:
[1] = system: hCAP18 transcription; test: Initial studies on small-molecule control of hCAP18 transcription; format: cell-based, human
Description: Since thus small molecules can control the expression of hCAP18, it is meaningful to systematically screen for inhibitory compounds. Initial studies have shown that estrogen and some of its metabolites have no effect. […] Based on these findings, antagonists to vitamin D, such as ZK159222 (Schering A G), and TEI-9647 (Tejin Institute for Medical Research, Tokyo), and antagonists to vitamin A such as AGN193109 (Allergen Pharmaceuticals), are potential agents for use in the methods of the invention.

[2] = system: HaCaT cells; test: Pertussis toxin assay (LL-37 induced proliferation); format: cell-based, human; conditions: pretreatment with pertussis toxin 20 ng/ml 24 h before LL-37 (5 or 10 μg/ml); not shown
Procedure: To assess the involvement of FPRL1 in mediating the stimulation of epithelial cell proliferation induced by hCAP18/LL-37, HaCaT cells were treated with the G-protein-coupled receptor inhibitor pertussis toxin. Cells were preincubated with pertussis toxin (Sigma-Aldrich, Switzerland) 24 h before the LL-37 treatment in a final toxin concentration of 20 ng/ml. Medium was changed 48 hours after cell seeding and the HaCaT cells were treated with 100 μl of medium (DMEM+5% FCS and PEST) containing synthetic biologically active LL-37 peptide at 5 or 10 μg per ml respectively. Cells treated with only DMEM+5% FCS and PEST served as control.

[3] = system: HaCaT and HEKn cells; format: cell-based
Procedure: (§1) 25,000 cells/well were plated in 6-well plate culture dishes. […], cells were treated with 0, 0.23, 0.46, 0.69, 0.9, 1.15, 2.3, 4.6 and 11.5 μM LL-37. Each treatment was performed in triplicate. The peptide was diluted in medium (DMEM 5% FCS to HaCaT cells and Epilife basal Medium supplemented with 0.1% FCS to HEKn cells). The cells were treated during a total time of 24 h. After LL-37 stimulation, the topoisomerase I inhibitor camptothecin (CAM) (Sigma Chemical Co., St. Luis, Mo.) in dimethylsulfoxide was added to the cells to a final 6 μM concentration. Cells were further incubated for 24 h before analysis.
Two apoptotic parameters, the loss of the membrane integrity and DNA decrease were evaluated by flow cytometry.
Evaluation of Membrane integrity: After stimulation with LL-37, and treatment with CAM, cells were harvested by trypsinization. The cells were then washed in cold Dulbecco's phosphate-buffered saline (PBS) and counted with a haemocytometer (Hausser Scientific, Horsham, Pa.). Cell density was adjusted to 1×10^6 cells/ml in PBS. Apoptosis was detected by staining with propidium iodide and YO-PRO-1 dye (Molecular Probes, Eugene, Oreg.). Stained cells were analyzed on a FACScan (Beckton-Dickinson, San Jose, Calif.). Cells were gated for analysis on the basis of the forward (FSC) and side light scatter characteristics (SSC). Analysis of cells expressing YO-PRO and propidium iodide (PI) was done using Cell Quest software (Becton Dickinson), which provided percentages of YO-PRO and PI-positive cells. Cells that stained green with YO-PRO were considered apoptotic. Cells that stained also red, with propidium iodide, were necrotic. Live, viable cells take up little or no dye.
Analysis of DNA content by flow cytometry. The PI/RNase staining buffer (BectonDickinson) was used for this analysis. Trypsinized cells were fixed in cold 70% (v/v) ethanol, and stored until its use at 4° C. The DNA content was measured through incorporation of propidium iodide into DNA. Fluorometric analysis was performed using a FACScan flow cytometer (Becton and Dickinson, Mountain View, Calif., USA). FSC (forward light scatter) and SSC (side light scatter) of particles were simultaneously measured to determine the size and the granularity of cells. The red fluorescence of PI stained nuclei was detected in the FL-4 window (600 nm band pass filter and 35 nm bandwidth). The intensity of fluorescence was proportional to the cellular DNA content. Each histogram was divided into two parts: (1) the M1 area representing asynchronous, non-apoptotic, live cells (cells in G1,S and G2 phases with DNA content equal to 2n to 4N); and (2) the M2 area representing apoptotic cells with a smaller quantity of DNA in comparison to living cells.

[4] = system: Caspase-3; test: Caspase-3 activity assay; format: cell-based, human
Procedure: as §1
Caspase-3 enzymatic activity was estimated using the fluorometric substrate VDVAD-AMC (100 μM) and DEVD-AMC (50 μM) as previously described.

[5] = system: IAP-2 mRNA; test: IAP-2 expression by RT-PCR; format: cell-based, human
Procedure: HEKn cells were treated with 2 μM LL-37 and harvested at different time points after stimulation. RNA from these cells was reverse transcribed and the expression of IAP-2 was determined by real-time PCR. The transcription level of IAP-2 for each time point is shown normalized against 18S RNA and relative to the untreated cells (control set as 1 for each time point).
HEKn cells were treated with or without the specific COX-2 inhibitor SC-791 (25 nM) and further incubated for 6 hours with or without LL-37 (2 μM).
(§2) Total RNA was isolated from cells after different treatments according to the manufacturer's directions by using the Quiagen RNasy kit (Operon Biotechnologies, Cologne, Germany). Reverse transcription was performed with a first-strand synthesis kit (Amershan Biosciences)

[6] = system: HaCaT cells; test: LL-37 peptide treatment of epithelial cells, [3H]-Thymidine incorporation; format: cell-based, human; conditions: 5% fetal calf serum, LL-37 10 μg/ml, vs non treated control
Procedure: A spontaneously immortalised human keratinocyte cell line (HaCaT)^19 was cultured in DMEM (Dulbecco's modified Eagle's medium, Gibco BRL, Life Technologies, Scotland) supplemented with 10% FCS (fetal calf serum, Hy-Clone, Boule Nordic AB Huddinge, Sweden) and antibiotics (PEST=penicillin 50 U/l and streptomycin […], Gibco BRL). Cells were harvested at 70% confluence and seeded in 96-well plates, 2000 cells in 100 μl medium (DMEM+10% FCS and PEST). After 12 hours, medium was changed to serum free medium (DMEM+PEST) and cells were synchronized in G0/G1 by serum starvation for 72 hours and then treated with 100 μl of medium (DMEM+5% FCS+PEST) containing synthetic biologically active LL-37 peptide at 10 μg per ml. Cells treated with only DMEM+5% FCS and PEST served as control. The experiments were performed in quadruplicates. Cell proliferation was evaluated by [^3H]-Thymidine incorporation. Cells were treated with 1 μCi/well of [^3H]-Thymidine (20.00 Ci/mmol, Perkin Elmer Life Sciences Inc. Boston, Mass.) during 12 hours and harvested (Harvester 96, Tomtec, Orage, Conn.) onto a glass fiber filter (Wallac Oy Turku, Finland). The incorporation of [^3H]-Thymidine was determined using a liquid scintillation counter (Microbeta Pluss, Wallac Sveriges AB). The experiment was repeated twice in 6 replicates.

[7] = system: ERK1/2; test: Assay of phosphorylated ERK1/2 in LL-37 treated HaCaT cells; format: cell-based, human; conditions: LL-37 10 μg/ml, Western blot
Procedure: HaCaT cells were seeded at 10% confluence and kept in DMEM with 0.2% FCS for 36 hours. For the next 48 hours, cells were cultured in DMEM with 1% or 5% FCS respectively, and in presence or absence of LL-37 at 10 μg/ml, with daily changes of medium. EGF at 10 ng/ml served as positive control. The expression of phosphorylated ERK 1/2 was evaluated by Western blot analysis with a mouse monoclonal antibody (Cell Signaling Technology, Beverly Mass.).

[8] = system: COX-2 mRNA; test: COX-2 expression by RT-PCR; format: cell-based, human; conditions: HEKn cells, 2.3 μM LL-37
Procedure: HEKn cells were treated with 2 μM LL-37 and harvested at 6, 12 and 24 hours after stimulation. Untreated cells were used as a control in each time point (light grey columns). RNA from these cells was reverse transcribed and the relative expression of COX-2 with respect to the control was determined by qPCR as above.
as §2

[9] = Antibacterial assay of synthetic LL-37; conditions: synthetic LL-37 peptide
Description: LL-37 peptide was synthesised and purified by HPLC to a purity of 98% (PolyPeptide Laboratories A/S, Hillerød, Denmark). Biological activity of the peptide was confirmed in an antibacterial assay^18.

[10] = system: hCAP18 transcription; conditions: via vitamin D receptor binding to response element in hCAP18 promoter; cited from earlier work

Compound: estrogen
- effect on hCAP18 expression ([1]; initial studies, cells not given): no effect

Compound: pertussis toxin
- suppression of proliferation of HaCaT cells [2]: approximately 50%

Compound: CC[C@@]1(O)C(=O)OCc2c1cc1n(c2=O)Cc2cc3ccccc3nc2-1 [CAM, camptothecin]
- induction of apoptosis (membrane integrity, DNA profile) ([3]; 6 μM CAM, 24 hours, HaCaT and keratinocytes): morphological changes characteristic of apoptosis
- time of peak caspase activity ([4]; keratinocytes, CAM treatment): 24 h
- caspase activity ([4]; keratinocytes, within the first 12 hours of CAM treatment): significantly increased

Compound: NS(=O)(=O)c1ccc(-c2c(-c3ccccc3)noc2C(F)F)cc1 [SC-791]
- LL-37 induced increase of IAP-2 mRNA after COX-2 inhibition ([5]; HEKn cells pretreated 12 h with 25 nM SC-791, then 2 μM LL-37): did not increase the IAP-2 mRNA levels

Compound: LL-37: synthetic, biologically active C-terminal 37 amino acid peptide of human cathelicidin hCAP18
- cell proliferation ([3H]-Thymidine incorporation) [6]: significant increase in cell proliferation
- activation of ERK1/2 [7]: no significant activation
- amount of apoptotic cells ([3]; 24 h with LL-37 alone or simultaneously with LL-37 and CAM, data not shown): not change in the amount of apoptotic cells
- inhibition of CAM induced apoptosis ([3]; LL-37 0.23 μM up to 2,3 μM for 24 hours before CAM 6 μM 24 h, HEKn and HaCaT cells): inhibited both DNA fragmentation and loss of membrane permeability
- cell death ([3]; LL-37 4.6 μM and 11.5 μM, 24 hours before CAM, non-apoptotic mechanisms): caused cell death
- cytotoxicity (increased fraction of necrotic but not apoptotic cells) ([3]; LL-37 4.6 and 11.5 μM, alone or simultaneous with CAM): cytotoxic
- effect on camptothecin-induced caspase activation ([4]; pre-treatment with 2.3 μM LL-37): decreased camptothencin-induced caspase activation
- IAP-2 mRNA ([5]; HEKn cells, 2.3 μM LL-37, from 6 hours to 12 hours after stimulation): increased IAP-2 mRNA
- c-IAP-2 levels ([5]; HEKn cells, LL-37 below 2.3 μM, data not shown): did not affect the c-IAP-2 levels
- COX-2 mRNA levels [8]: time-dependent increase in mRNA levels
- time of highest COX-2 mRNA levels [8]: 12 h
- biological activity in antibacterial assay [9]: confirmed

Compound: vitamin D
- induction of hCAP18 transcription [10]: strongest inducer of hCAP18 transcription

Compound: Vitamin A
- hCAP18 transcription ([1]; breast cancer cell line ZR-75-1): stimulates transcription
- hCAP18 transcription ([1]; skin keratinocytes): inhibits the transcription
